Assay results from patent US9963461B2, “Phillygenin ibuprofen ester, preparation method therefor, and application thereof” (priority 2014, dated 2018).
Marks after values point to notes of the source that are not given here.

Columns and labels:
parainfluenza virus [1] = type: in vivo, Kunming mice; settings: lung suspensions, parainfluenza virus infected mice; 19.5 mg/kg/d, 5 days
influenza virus [2] = type: in vivo, Kunming mice; settings: lung suspensions, influenza virus infected mice; 19.5 mg/kg/d, 5 days
influenza virus [3] = experiment: Impact of the drugs on the virus-induced cytopathy (MTT); type: cell-based; settings: influenza virus 100 TCID50, Vero cells, about the maximal non-cytotoxic concentration, 72 hours
parainfluenza virus [4] = experiment: as above; type: cell-based; settings: parainfluenza virus 100 TCID50, Vero cells, about the maximal non-cytotoxic concentration, 72 hours
[5] = system: coxsackie virus B3 (CVB3); experiment: as above; type: cell-based; settings: CVB3 100 TCID50, Vero cells, about the maximal non-cytotoxic concentration, 72 hours
[6] = system: respiratory syncytial virus (RSV); experiment: as above; type: cell-based; settings: RSV 100 TCID50, Vero cells, about the maximal non-cytotoxic concentration, 72 hours
Vero cell = experiment: Cytotoxicity test on Vero cell (MTT); settings: 72 hours
[7] = system: Coxsackie virus A16 (CoxA16); experiment: Impact of the drugs on the virus-induced cytopathy (MTT); type: cell-based; settings: CoxA16 100 TCID50, Vero cells, about the maximal non-cytotoxic concentration, 72 hours
Enterovirus EV71 = experiment: as above; type: cell-based; settings: EV71 100 TCID50, Vero cells, about the maximal non-cytotoxic concentration, 72 hours
Adenovirus (AdV) = experiment: as above; type: cell-based; settings: ADV 100 TCID50, Vero cells, about the maximal non-cytotoxic concentration, 72 hours
parainfluenza virus [8] = type: in vivo, Kunming mice; settings: parainfluenza virus infected mice; 19.5 mg/kg/d intragastric, 5 days
[9] = system: Herpes Simplex Virus type I (HSV-1); experiment: Impact of the drugs on the virus-induced cytopathy (MTT); type: cell-based; settings: HSV-I 100 TCID50, Vero cells, about the maximal non-cytotoxic concentration, 72 hours
influenza virus [10] = type: in vivo, Kunming mice; settings: influenza virus infected mice; 19.5 mg/kg/d intragastric, 5 days

Compound: CCOC(=O)C1=C[C@@H](OC(CC)CC)[C@H](NC(C)=O)[C@@H](N)C1 [Oseltamivir phosphate, oseltamivir phosphate]
- Hemagglutination titer (InX) (parainfluenza virus [1]): 22.05 ± 1.055
- Hemagglutination titer Inhibitive rate (%) (parainfluenza virus [1]): 33.44%
- Hemagglutination titer (InX) (influenza virus [2]): 20.50 ± 1.122
- Hemagglutination titer Inhibitive rate (%) (influenza virus [2]): 36.73%
- antiviral effective rate (ER %) (influenza virus [3]): 81.76** %
- antiviral effective rate (ER %) (parainfluenza virus [4]): 94.52** %
- antiviral effective rate (ER %) [5]: 1.64%
- antiviral effective rate (ER %) [6]: 37.60%
- Median toxic concentration (TC50) (Vero cell): 832 µg/mL
- maximal non-toxic concentration (TC0) (Vero cell): 0.28 g/L
- antiviral effective rate (ER %) [7]: 2.95%
- antiviral effective rate (ER %) (Enterovirus EV71): 51.86%
- antiviral effective rate (ER %) (Adenovirus (AdV)): 10.31%
- Lung index (X ± S) (parainfluenza virus [8]): 1.243 ± 0.052
- Lung index Inhibitive rate (%) (parainfluenza virus [8]): 21.85%
- antiviral effective rate (ER %) [9]: 66.56** %
- Lung index (X ± S) (influenza virus [10]): 1.178 ± 0.066
- Lung index Inhibitive rate (%) (influenza virus [10]): 19.84%
